Reference: US8415359B2, “Phenylpyrrole derivative” (Daiichi Sankyo Company, Limited, priority 2008, dated 2013)

Biological target: T1, human pancreatic GK (human glucokinase variant 1, GST-fused protein) (Homo sapiens, UniProt P35557)
T1 construct: made in house; host or cells: Escherichia coli (such as BL21 or JM109)
T1 sequence (P35557 1-465): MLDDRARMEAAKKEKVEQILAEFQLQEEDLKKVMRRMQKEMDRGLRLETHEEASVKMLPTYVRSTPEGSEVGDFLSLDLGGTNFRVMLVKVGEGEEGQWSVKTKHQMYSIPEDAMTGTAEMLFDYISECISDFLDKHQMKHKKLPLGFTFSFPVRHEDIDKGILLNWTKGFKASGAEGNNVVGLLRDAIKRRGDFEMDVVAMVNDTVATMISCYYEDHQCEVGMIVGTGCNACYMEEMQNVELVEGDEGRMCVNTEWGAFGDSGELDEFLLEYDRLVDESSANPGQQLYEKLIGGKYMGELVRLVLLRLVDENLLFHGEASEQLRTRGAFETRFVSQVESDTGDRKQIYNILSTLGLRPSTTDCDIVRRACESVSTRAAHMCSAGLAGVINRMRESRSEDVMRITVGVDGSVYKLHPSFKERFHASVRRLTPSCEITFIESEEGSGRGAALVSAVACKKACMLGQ
Assay: GK activity test (GK activation rate)
Format: biochemical
Conditions: test compound 1 μM; glucose 5 mM; 30 min at room temperature; absorbance at 340 nm with test compound / without test compound
Method: cDNA encoding human pancreatic GK polypeptide (GenBank Accession No. NM_000162, human glucokinase variant 1) was cloned from a human cDNA library by polymerase chain reaction (PCR), and introduced into a glutathione S-transferase (GST)-fused protein expression vector (GEX4T, GE Healthcare Bioscience). The vector was introduced into Escherichia coli (such as BL21 or JM109, Invitrogen), and the transformed E. coli was cultured overnight at 37° C. followed by recovery of the cells. After freezing and thawing the recovered cells, the cells were suspended in phosphate buffer containing Triton-X at a final concentration of 1% followed by disrupting the cells with an ultrasonic homogenizer. The supernatant obtained by low-speed centrifugation treatment of the homogenate (10,000×g, 30 minutes) was further subjected to high-speed centrifugation (100,000×g, 10 minutes) followed by recovering the supernatant and purifying the fused protein using a GST fused protein purification system (Bulk GST Purification Module, GE Healthcare Bioscience). The GK fused protein was divided into smaller aliquots and stored at −80° C.
GK activity was measured using the GK purified in (1) above. More specifically, an enzyme solution was prepared by adding the purified GK of (1) above and glucose-6-phosphate dehydrogenase (Sigma) to solution 1 of a glucose assay kit (D-Glucose UV Method, Roche Diagnostics). The enzyme solution, a test compound diluent and glucose (final concentration: 5 mM) were mixed in a 96-well ELISA plate, and allowed to react for 30 minutes at room temperature. Following completion of the reaction, absorbance at a wavelength of 340 nm was measured using SpectraMax Plus (Molecular Probe). Furthermore, unreacted (when glucose was not added) absorbance was used for the background.
GK activation rates were indicated with values represented by the following numerical formula: (absorbance after reacting for 30 minutes when test compound added)/(absorbance after reacting for 30 minutes when test compound not added).

GK Activation Rate | Compound
2.0 | COC[C@H](C)Oc1cc(Oc2ccc(C(=O)N3CCC3)cc2F)cc(-c2ccc(C3=NCCO3)[nH]2)c1 [Example 68, 2-(5-{3-[4-(Azetidin-1-ylcarbonyl)-2-fluorophenoxy]-5-[(1S)-2-methoxy-1-methylethoxy]phenyl}-1H-pyrrol-2-yl)-4,5-dihydro-1,3-oxazole]
1.7 | COC[C@H](C)Oc1cc(Oc2ccc(S(C)(=O)=O)cc2)cc(-c2ccc(C3=NC[C@@H](C)O3)[nH]2)c1 [Example 33, (5R)-2-(5-{3-[(1S)-2-Methoxy-1-methylethoxy]-5-[4-(methylsulfonyl)phenoxy]phenyl}-1H-pyrrol-2-yl)-5-methyl-4,5-dihydro-1,3-oxazole]
2.0 | COC[C@H](C)Oc1cc(Oc2ccc(S(C)(=O)=O)cc2)cc(-c2ccc(C3=NCC(CO)O3)[nH]2)c1 (stereo partly drawn) [Example 29, [2-(5-{3-[(1S)-2-Methoxy-1-methylethoxy]-5-[4-(methylsulfonyl)phenoxy]phenyl}-1H-pyrrol-2-yl)-4,5-dihydro-1,3-oxazol-5-yl]methanol]
2.0 | C[C@H]1CN=C(c2ccc(-c3cc(Oc4ccc(S(C)(=O)=O)cc4)cc(O[C@@H](C)CO)c3)[nH]2)O1 [Example 32, (2S)-2-(3-{5-[(5S)-5-Methyl-4,5-dihydro-1,3-oxazol-2-yl]-1H-pyrrol-2-yl}-5-[4-(methylsulfonyl)phenoxy]phenoxy)propan-1-ol]
2.0 | COC[C@H](C)Oc1cc(Oc2ncc(C(=O)N3CCC3)cc2Cl)cc(-c2ccc(-c3nccs3)[nH]2)c1 [Example 60, 5-(Azetidin-1-ylcarbonyl)-3-chloro-2-{3-[(1S)-2-methoxy-1-methylethoxy]-5-[5-(1,3-thiazol-2-yl)-1,1-pyrrol-2-yl]phenoxy}pyridine]
2.0 | COC[C@H](C)Oc1cc(Oc2ccc(S(C)(=O)=O)cc2)cc(-c2ccc(C3=NCCO3)[nH]2)c1 [Example 20, 2-(5-{3-[(1S)-2-Methoxy-1-methylethoxy]-5-[4-(methylsulfonyl)phenoxy]phenyl}-1H-pyrrol-2-yl)-4,5-dihydro-1,3-oxazole]
2.6 | CNC(=O)c1ccc(Oc2cc(O[C@@H](C)COC)cc(-c3ccc(C4=NC[C@H](CO)O4)[nH]3)c2)cn1 [Example 126, 5-(3-{5-[(5R)-5-(Hydroxymethyl)-4,5-dihydro-1,3-oxazol-2-yl]-1H-pyrrol-2-yl}-5-[(1S)-2-methoxy-1-methylethoxy]phenoxy)-N-methylpyridine-2-carboxamide]
2.0 | COC[C@H](C)Oc1cc(Oc2ccc(C(=O)N3CCCC3)cc2F)cc(-c2ccc(-c3nccs3)[nH]2)c1 [Example 47, 2-(5-{3-[2-Fluoro-4-(pyrrolidin-1-ylcarbonyl)phenoxy]-5-[(1S)-2-methoxy-1-methylethoxy]phenyl}-1H-pyrrol-2-yl)-1,3-thiazole]
2.4 | CNS(=O)(=O)c1ccc(Oc2cc(O[C@@H](C)COC)cc(-c3ccc(C4=NC[C@H](CO)O4)[nH]3)c2)cn1 [Example 127, 5-(3-{5-[(5R)-5-(Hydroxymethyl)-4,5-dihydro-1,3-oxazol-2-yl]-1H-pyrrol-2-yl}-5-[(1S)-2-methoxy-1-methylethoxy]phenoxy)-N-methylpyridine-2-sulfonamide]
1.7 | Cc1nnc(-c2ccc(-c3cc(Oc4ccc(C(=O)N5CCC5)cc4F)cc(O[C@@H](C)CO)c3)[nH]2)o1 [Example 67, (2S)-2-{3-[4-(Azetidin-1-ylcarbonyl)-2-fluorophenoxy]-5-[5-(5-methyl-1,3,4-oxadiazol-2-yl)-1H-pyrrol-2-yl]phenoxy}propan-1-ol]
2.4 | COC[C@H](C)Oc1cc(Oc2ccc(S(C)(=O)=O)nc2)cc(-c2ccc(-c3nccs3)[nH]2)c1 [Example 65, 5-{3-[(1S)-2-Methoxy-1-methylethoxy]-5-[5-(1,3-thiazol-2-yl)-1H-pyrrol-2-yl]phenoxy}-2-(methylsulfonyl)pyridine]
2.0 | COC[C@H](C)Oc1cc(Oc2ccc(S(C)(=O)=O)cc2)cc(-c2ccc(C3=NC[C@H](C)O3)[nH]2)c1 [Example 31, (5S)-2-(5-{3-[(1S)-2-Methoxy-1-methylethoxy]-5-[4-(methylsulfonyl)phenoxy]phenyl}-1H-pyrrol-2-yl)-5-methyl-4,5-dihydro-1,3-oxazole]
2.3 | COC[C@H](C)Oc1cc(Oc2ccc(S(C)(=O)=O)nc2)cc(-c2ccc(C3=N[C@H](C)[C@H](CO)O3)[nH]2)c1 [Example 89, {(4R,5R)-2-[5-(3-[(1S)-2-Methoxy-1-methylethoxy]-5-{[6-(methylsulfonyl)pyridin-3-yl]oxy}phenyl)-1H-pyrrol-2-yl]-4-methyl-4,5-dihydro-1,3-oxazol-5-yl}methanol]
2.0 | COC[C@H](C)Oc1cc(Oc2ncc(C(=O)N3CCC3)cc2Cl)cc(-c2ccc(C3=NC[C@H](C)O3)[nH]2)c1 [Example 74, 5-(Azetidin-1-ylcarbonyl)-3-chloro-2-(3-[(1S)-2-methoxy-1-methylethoxy]-5-{5-[(5S)-5-methyl-4,5-dihydro-1,3-oxazol-2-yl]-1H-pyrrol-2-yl}phenoxy)pyridine]
2.1 | COC[C@H](C)Oc1cc(Oc2ccc(S(C)(=O)=O)cc2)cc(-c2ccc(C3=NC[C@H](CO)O3)[nH]2)c1 [Example 35, [(5R)-2-(5-{3-[(1S)-2-Methoxy-1-methylethoxy]-5-[4-(methylsulfonyl)phenoxy]phenyl}-1H-pyrrol-2-yl)-4,5-dihydro-1,3-oxazol-5-yl]methanol]
1.9 | C[C@H]1CN=C(c2ccc(-c3cc(Oc4ccc(C(=O)N5CCC5)cc4F)cc(O[C@@H](C)CO)c3)[nH]2)O1 [Example 70, (2S)-2-(3-[4-(Azetidin-1-ylcarbonyl)-2-fluorophenoxy]-5-{5-[(5S)-5-methyl-4,5-dihydro-1,3-oxazol-2-yl}-1H-pyrrol-2-yl]phenoxy)propan-1-ol]
2.9 | CC[C@@H]1COC(c2ccc(-c3cc(Oc4ccc(S(C)(=O)=O)nc4)cc(O[C@@H](C)CO)c3)[nH]2)=N1 [Example 85, (2S)-2-(3-{5-[(4R)-4-Ethyl-4,5-dihydro-1,3-oxazol-2-yl]-1H-pyrrol-2-yl}-5-{[6-(methylsulfonyl)pyridin-3-yl]oxy}phenoxy)propan-1-ol]
1.9 | C[C@@H](CO)Oc1cc(Oc2ccc(S(C)(=O)=O)cc2)cc(-c2ccc(-c3nccs3)[nH]2)c1 [Example 2, (2S)-2-{3-[4-(Methylsulfonyl)phenoxy]-5-[5-(1,3-thiazol-2-yl)-1H-pyrrol-2-yl]phenoxy}propan-1-ol]
2.0 | C[C@@H]1COC(c2ccc(-c3cc(Oc4cnc(S(C)(=O)=O)cn4)cc(O[C@@H](C)CO)c3)[nH]2)=N1 [Example 107, (2S)-2-(3-{5-[(4R)-4-Methyl-4,5-dihydro-1,3-oxazol-2-yl]-1H-pyrrol-2-yl}-5-{[5-(methylsulfonyl)pyrazin-2-yl]oxy}phenoxy)propan-1-ol]
3.0 | COC[C@H](C)Oc1cc(Oc2ccc(S(C)(=O)=O)nc2)cc(-c2ccc(C3=NC[C@H](C)O3)[nH]2)c1 [Example 76, 5-(3-[(1S)-2-Methoxy-1-methylethoxy]-5-{5-[(5S)-5-methyl-4,5-dihydro-1,3-oxazol-2-yl]-1,4-pyrrol-2-yl}phenoxy)-2-(methylsulfonyl)pyridine]
